SMILES strings stand for the structures. Marks after values point to notes of the source that are not given here.

Data set [1] in a line: parallel artificial membrane permeability assay for the BBB (PAMPA-BBB). Format: in vitro ADME. The note with it: metabolites in the five PLE extracts, 4 h at 37 °C, pH 7.4; result in words. How it is done:
The parallel artificial membrane permeability assay for the BBB assay was carried out as previously described with some modifications. Briefly, 20 mg/mL thinned peach extracts in 50% ethanol (v/v) was diluted to 5 mg/mL with potassium phosphate buffer (10 mmol/L, pH 7.4). Then, 350 μL of 5 mg/mL extracts and 350 μL of buffer were added to each well of the donor plate and the acceptor plate, respectively. The filter membrane of the donor plate was coated with 5 µL of BBB solution. Afterwards, the whole plate was incubated in the dark for 4 h at 37 °C. After incubation, 300 µL of sample from each well in the donor and acceptor plates was taken out, collected and dried. The dried acceptor and donor samples were redissolved in 50 µL of ethanol and analyzed via HPLC-Q-TOF-MS/MS as described below. The permeability across the artificial BBB of each compound was calculated in terms of cm/s, as in [16].
(In PAMPA a lipid-coated filter parts donor from acceptor wells.)

The nature of data set [2]: RNS scavenging capacity, nitric oxide (NO) radical scavenging assay. The note with it: at the maximum concentration tested, 0.8 mg/mL; PLE extracts under optimized conditions and ascorbic acid. How it is done:
The RNS scavenging capacity was estimated by referring to the nitric oxide (NO) radical scavenging assay described by Ho et al. (2010), with some modifications. In brief, 100 μL of the thinned peach extracts in 25% ethanol (v/v) was mixed with 50 μL of 5 mM sodium nitroprusside dehydrate in buffer (30 mmol/L phosphate buffer at pH 7.5) using a transparent 96-well plate. The mixtures were placed under white light at room temperature for 60 min. Afterwards, 100 μL of Griess reagent (500 mg sulphanilamide, 50 mg naphthylethylene diamine dihydrochloride and 1.25 mL of phosphoric acid in 48.5 mL of H2O) was added to each well. The mixtures were allowed to stand for 5 min and the absorbance was read at 546 nm. Ascorbic acid was used as the reference standard and the NO scavenging capacity was calculated as described by Sánchez-Martínez et al. (2021).

Data set [3] is described as follows: ROS scavenging capacity, oxygen radical absorbance capacity (ORAC) assay. The note with it: PLE extracts under optimized conditions (50% ethanol, 180 °C) and reference standard. How it is done: The ROS scavenging capacity was measured using the oxygen radical absorbance capacity (ORAC) assay described by Ou et al. (2001). Briefly, the reaction mixture contained 100 μL of samples at different concentrations in 10% ethanol (v/v), 100 μL of 590 mmol/L AAPH in 30 mmol/L phosphate buffer (pH 7.5), 100 μL of phosphate buffer and 25 μL of 10 μmol/L fluorescein in buffer. The absorbance was read at the 485 nm excitation spectrum and 528 nm emission spectrum, and recorded at 5 min intervals for 60 min at 37 °C. Ascorbic acid was used as the reference standard and 10% ethanol (v/v) was used as the control. The ROS scavenging capacity was calculated as described by Sánchez-Martínez et al. (2021).

On to `CC(=O)c1ccc(O)c(O)c1` [3,4-dihydroxyacetophenone, 3,4-Dihydroxyacetophenone], for which, in data set [1], the “ability to cross the artificial BBB” value was “could cross the BBB”.

Consider `Cc1cc(=O)oc2c(O)c(O)ccc12` [4-methyldaphnetin, 4-Methyldaphnetin], for which the “ability to cross the artificial BBB” value in data set [1] is listed as “could cross the BBB”.

In the case of `CCCCCCCC(O)/C=C\C(O)CCC(O)CCCC(=O)O` (stereo not shown) [(9Z)-5,8,11-Trihydroxyoctadec-9-enoic acid], the “ability to cross the artificial BBB” value in data set [1] is “could cross the BBB”.

Turning to `O=C1O[C@H]([C@@H](O)CO)C(O)=C1O` [Ascorbic acid], the “RNS, percentage of inhibition of nitrogen species with respect to the control” value in data set [2] is recorded as 83.8 ± 4 ^a %. For the same compound, the “ROS (IC50)” value in data set [3] is given as 3.3 ± 0.6 ^e µg/mL.

In the case of `COc1ccc(/C=C/C(=O)O)cc1O` [isoferulic acid, Isoferulic acid], in data set [1], the “ability to cross the artificial BBB” value is “could cross the BBB”.

For the compound `CC1(C)CC[C@]2(C(=O)O)CC[C@]3(C)C(=CCC4[C@@]5(C)C[C@@H](O)[C@H](O)[C@](C)(CO)C5CC[C@]43C)[C@@H]2[C@@H]1O` (stereo partly drawn) [triterpenoid 3, (1S,4aR,6aS,6bR,9S,10R,11R,12aR,14bS)-1,10,11-trihydroxy-9-(hydroxymethyl)-2,2,6a,6b,9,12a-hexamethyl-1,3,4,5,6,6a,7,8,8a,10,11,12,13,14b-tetradecahydropicene-4a-carboxylic acid], in data set [1], the “ability to cross the artificial BBB” value is given as “highest permeability value”.

The values are drawn from article PMC9407205, “Neuroprotective Potential of Thinned Peaches Extracts Obtained by Pressurized Liquid Extraction after Different Drying Processes” (Foods, 2022).
